The values that follow come from patent publication US9533019B1, “Calotropis procera extracts as anti-ulcerative colitis agents” (KING SAUD UNIVERSITY, priority 2016, dated 2017).

In this assay the test system is acetic acid-induced colitis in male Wistar rats. In words: Acetic acid-induced ulcerative colitis. The format is in vivo. The procedure:
Male Wistar rats were divided into 9 experimental groups, each of 6 animals. Rats of groups 1 and 2 received the vehicle (5 mL/kg) and served as normal control and control colitis groups, and Group 3 was administered dexamethasone (0.1 mg/kg) and served as Reference Drug group. […] All medications were administered orally, once daily for 5 consecutive days after colitis induction. The first doses were administrated in all groups one hour after colitis induction. The colonic lesions were assessed by weighing the colon specimens and the wet weight/length ratio was calculated for all the rats. The specimens were examined under a dissecting microscope and the lesion scores were quantified by scoring system (0-5). Ulcer area was measured using a plane glass square. Each cell on the glass square was 1 mm^2 in area, and the number of cells was counted and the ulcer area was determined for each colon.
The Ulcer index (UI) was measured by summing the lesion score and the ulcer area for each colon specimen. The curative ratio was determined according to formula (1) below: […]
The inflammatory changes of the intestinal tract were associated with a significant increase of wet weight/length of the colon specimens as an indicator of inflammation. […] The colitis was induced by slowly infusion of 2 mL (4%, v/v) acetic acid in saline into the colon through the catheter.

Where [1] appears, read: 50 mg/kg orally once daily for 5 days after colitis induction, n=6.

The structures appear in SMILES notation. Marks after values point to notes of the source that are not given here.

Take `C[C@]12C=CC(=O)C=C1CC[C@@H]1[C@@H]2[C@@H](O)C[C@@]2(C)[C@H]1CC[C@]2(O)C(=O)CO` [Prednisolone]: where the note is “50 mg/kg orally for 5 days”, the “percent protection of control colitis” value stood at 54.9%. In addition, under setting [1], the “Lesion score (0-5)” value is given as 2.22 ± 0.12, the Ulcer area is on record as 2.53 ± 0.15* cm^2 and the Ulcer index was determined as 4.65 ± 0.27. The “Wet W/L” value (colon wet weight/length, 50 mg/kg orally once daily for 5 days after colitis induction, n=6) stood at 0.46 ± 0.02 g/cm.
